Literature values as cited in patent publication US20090297541A1, “MATURATION OF DENDRITIC CELLS” (priority 2006, published 2009).
pKd: −log10 of the molar value.

Assays:
IFNGR1 chain = details: high affinity
immature DCs = details: MPLA at low doses (under 50 μg/ml)
monocyte-derived DCs = details: MPLA alone at concentrations up to 100 μg/ml

Substance	pKd (IFNGR1 chain)	impact on DC maturation (monitored by IL-12 production) (immature DCs)	production of IL-12p70 or IL-10 (monocyte-derived DCs)	migration and functional maturation of DCs in vivo (murine DCs)
IFN-gamma: cytokine, homodimer of two noncovalently bound polypeptide subunits; IFNγ receptor agonist	~9.00			
Monophosphoryl lipid A [MPLA]		no impact on DC maturation	failed to induce any significant production of IL-12p70 or IL-10	induces the migration and functional maturation of murine DCs in vivo
